Results taken from a melting point compilation (Tetko et al.).

| SMILES | melting point [°C] |
| --- | --- |
| O=C1NCCc2ccc([N+](=O)[O-])cc21 | 228 to 230 |
| Cc1[nH]c(C2CCCN2)nc1-c1ccccc1 (centres undefined) | 164 to 166 |
| O=C1NCC2(CCCCC2)O1 | 96 to 98 |
| Cc1nc[nH]n1 | 89 to 91 |
| O=S(=O)(CCO)c1ccc(Br)cc1 | 63 to 65 |
| NC(=O)N1CCCCC1C(=O)O (centres undefined) | 139 to 141 |
| Cn1nc(C(F)(F)F)c(C(=O)O)c1C(F)(F)Cl | 119 to 121 |
| CCOC(=O)c1nnc2ccccc2c1Cl | 53 to 55 |
| COc1ccc(N)cc1S(=O)(=O)N(C)C | 144 to 146 |
| O=C(O)c1ccc(N2CCNC2=O)cc1 | 313 to 315 |
| CS(=O)(=O)c1ncc[nH]1 | 206 to 208 |
| Nc1cc(=O)[nH]n1-c1ccc(F)cc1 | 202 to 204 |
| CC(C)(C)OC(=O)N1CCC(OCC(=O)O)CC1 | 102 to 104 |
| COc1cc(I)c(Cl)cc1C(=O)O | 141 to 143 |
| Nc1ncc(Cl)s1 | 90 to 92 |
| O=C(NCCCl)OCC(F)(F)F | 31 to 33 |
| NC(=S)C1(NC(=O)c2ccccc2)CCCCC1 | 189 to 191 |
| NCc1cc(Br)c[nH]1 | 105 to 107 |
| O=C(NC(CO)C(=O)O)c1cccc(Br)c1 (centres undefined) | 140 to 142 |
| CC(C(=O)c1ccccc1)N1C(=O)CCC1=O (centres undefined) | 107 to 109 |

| SMILES | melting point [°C] |
| --- | --- |
| CNC(=S)NC1CC1 | 108 to 110 |
| Cn1nc(-c2ccccn2)c(-c2ccc(F)cc2)c1N | 164 to 166 |
| Cc1nc(Cc2nnc(S)o2)cs1 | 194 to 196 |
| O=C(O)CCNS(=O)(=O)c1ccc2c(c1)OCCCO2 | 200 to 205 |
| Nn1c(S)nnc1C1CCCCO1 (centres undefined) | 162 to 164 |
| COc1ccc(OC)c(C(C)NC(=O)C(C)Cl)c1 (centres undefined) | 96 to 98 |
| COC(=O)c1ccc(Br)c(S(=O)(=O)Cl)c1 | 102 to 104 |
| Nc1ccccc1NC(=O)Cc1cccs1 | 163 to 165 |
| OCCOc1ccccc1O | 99 to 100 |
| O=C(O)CC1=C(c2cccs2)N2CCN=C2S1 | 220 to 222 |
| Oc1ccccc1-c1nc(CCl)no1 | 76 to 78 |
| COc1ccc(Oc2ccc(CO)cc2)cc1 | 100 to 102 |
| Cc1cc(C=O)c(C)n1Cc1ccco1 | 87 to 89 |
| CC(C)(C)NC(=O)c1cccc(N)c1 | 124 to 126 |
| CCSc1ccc(Cl)cc1C(=O)O | 154 to 156 |
| O=C(O)C(F)(F)c1ccc(F)cc1 | 99 to 101 |
| Cn1c(SCC(=O)O)nnc1-c1cccs1 | 205 to 207 |
| Cc1cc(NN)ncn1 | 99 to 101 |
| Cc1ccc(N2CCCC(Br)C2=O)cc1 (centres undefined) | 96 to 98 |
